Assays:
[1] = target: Polymerase acidic protein (Influenza A virus (A/Puerto Rico/8/1934(H1N1))) (UniProt P03433); assay: Inhibition of Influenza A virus N-terminal Polymerase acidic protein endonuclease activity in HEK293T cells transfected with IAV RNA polymerase complex and firefly/renilla luciferase reporter at 10 uM by […] Dual-Glo luciferase assay relative to control; format: cell-based
[2] = test system: Influenza A virus; assay: Antiviral activity against Influenza A virus A/WSN/33, H1N1 infected in MDCK cells assessed as decrease in viral replication incubated for 72 hrs; format: functional, organism-based; conditions: A/WSN/33, H1N1, MDCK
[3] = Cytotoxicity against MDCK cells assessed as decrease in survival rate; format: toxicity, cell-based, Canis lupus familiaris; conditions: dog
[4] = target: Polymerase acidic protein (Influenza A virus (A/Puerto Rico/8/1934(H1N1)), UniProt P03433); assay: Inhibition of Influenza A virus N-terminal Polymerase acidic protein endonuclease activity in HEK293T cells transfected with IAV RNA polymerase complex and firefly/renilla luciferase reporter by […] Dual-Glo luciferase assay; format: cell-based
[5] = test system: Influenza A virus; assay: Antiviral activity against Influenza A virus A/WSN/33, H1N1 infected in MDCK cells assessed as suppression of viral titer at 3 uM incubated for 72 hrs relative to control; format: functional

Row | SMILES | inhibition [1] [%] | EC50 [2] [nM] | CC50 [3] [nM] | IC50 [4] [nM] | Activity [5] [%]
1 | C[C@H]1CN(C2c3ccccc3CCc3ccccc32)n2ccc(=O)c(O)c2C(=O)N1 | 37.6 |  |  |  | 
2 | O=C1c2c(O)c(=O)ccn2N(C2c3ccccc3CCc3ccccc32)C[C@H]2CCCCN12 | 66.9 |  |  |  | 
3 | O=C1NC2(CCCC2)CN(C2c3ccccc3CCc3ccccc32)n2ccc(=O)c(O)c21 | 9.2 |  |  |  | 
4 | O=C1c2c(O)c(=O)ccn2N([C@H]2c3ccccc3SCc3c2ccc(F)c3F)C[C@H]2CCCN12 |  | 2880 | 98500 | 231 | 
5 | C[C@@H]1CN(C2c3ccccc3CCc3ccccc32)n2ccc(=O)c(O)c2C(=O)N1 | 75.3 |  |  |  | 
6 | O=C1c2c(O)c(=O)ccn2N(C2c3ccccc3CCc3ccccc32)C[C@H]2CCCN12 | 81.1 | 724 | 34300 | 2870 | 
7 | O=C1c2c(O)c(=O)ccn2N(C(c2ccc(F)cc2)c2ccc(F)cc2)C[C@H]2CCCN12 | 50.1 |  |  |  | 
8 | O=C1c2c(O)c(=O)ccn2N([C@@H]2c3ccccc3SCc3c2ccc(F)c3F)[C@@H]2COCCN12 [BALOXAVIR] | 99 | 1 | 28800 | 1 | 
9 | O=C1N[C@H](c2ccccc2)CN(C2c3ccccc3CCc3ccccc32)n2ccc(=O)c(O)c21 | 31.6 |  |  |  | 
10 | O=C1c2c(O)c(=O)ccn2N(C2c3ccccc3CCc3ccccc32)C[C@@H]2CCCN12 | 68.2 |  |  |  | 
11 | O=C1c2c(O)c(=O)ccn2N(C(c2ccccc2)c2ccccc2)C[C@H]2CCCN12 | 48.2 |  |  |  | 
12 | CC(C)C[C@@H]1CN(C2c3ccccc3CCc3ccccc32)n2ccc(=O)c(O)c2C(=O)N1 | 56.4 |  |  |  | 
13 | CC(C)C[C@H]1CN(C2c3ccccc3CCc3ccccc32)n2ccc(=O)c(O)c2C(=O)N1 | 22.4 |  |  |  | 
14 | CSCC[C@@H]1CN(C2c3ccccc3CCc3ccccc32)n2ccc(=O)c(O)c2C(=O)N1 | 64.2 |  |  |  | 
15 | O=C1c2c(O)c(=O)ccn2N([C@@H]2c3ccccc3SCc3c2ccc(F)c3F)C[C@H]2CCCN12 |  | 134 | 15400 | 45 | 
16 | CSCC[C@H]1CN(C2c3ccccc3CCc3ccccc32)n2ccc(=O)c(O)c2C(=O)N1 | 30.5 |  |  |  | 
17 | O=C1c2c(O)c(=O)ccn2N(C2c3ccccc3CCc3ccccc32)C[C@@H]2CCCCN12 | 36.5 |  |  |  | 
18 | O=C1c2c(O)c(=O)ccn2N(C2c3ccccc3C=Cc3ccccc32)C[C@H]2CCCN12 | 91.9 | 292 | 62900 | 437 | 82.2
19 | O=C1N[C@H](Cc2ccccc2)CN(C2c3ccccc3CCc3ccccc32)n2ccc(=O)c(O)c21 | 49.5 |  |  |  | 
20 | CC(C)[C@H]1CN(C2c3ccccc3CCc3ccccc32)n2ccc(=O)c(O)c2C(=O)N1 | 31 |  |  |  | 
21 | O=C1N[C@@H](Cc2ccccc2)CN(C2c3ccccc3CCc3ccccc32)n2ccc(=O)c(O)c21 | 49 |  |  |  | 
22 | O=C1c2c(O)c(=O)ccn2N(C2c3ccccc3SCc3c2ccc(F)c3F)C[C@H]2CCCN12 (stereo not given in full) | 99.6 | 421 | 29600 | 82 | 99.9
